According to article PMC5704959 (ACS chemical biology, 2016):

Biological target: human Siglec-9 (hSiglec-9-Fc, hSiglec-9) (Homo sapiens, UniProt Q9Y336)
Assay: glycan microarray, fluorescence
Type: binding
Conditions: glycan immobilised on epoxide slide; PBS pH 7.4, RT, 2 h

human Siglec-9 (hSiglec-9-Fc, hSiglec-9), sequence (Q9Y336 18-348 limits assumed): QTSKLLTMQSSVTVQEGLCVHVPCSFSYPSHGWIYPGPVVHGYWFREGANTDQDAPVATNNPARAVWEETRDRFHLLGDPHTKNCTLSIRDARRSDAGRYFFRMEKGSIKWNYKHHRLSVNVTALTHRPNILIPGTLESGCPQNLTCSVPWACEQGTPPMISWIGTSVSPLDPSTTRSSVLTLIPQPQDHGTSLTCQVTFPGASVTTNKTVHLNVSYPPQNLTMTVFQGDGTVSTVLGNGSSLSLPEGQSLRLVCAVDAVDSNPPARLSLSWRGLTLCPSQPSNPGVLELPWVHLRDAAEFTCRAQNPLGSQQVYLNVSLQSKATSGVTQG

Row | SMILES | glycan microarray, fluorescence (RFU)
1 | CC(=O)N[C@H]1[C@H]([C@H](O)[C@H](O)COC(C)=O)O[C@@](O[C@H]2[C@@H](O)[C@@H](CO)O[C@@H](O[C@H]3[C@H](O)[C@@H](O)[C@H](OCCCN)O[C@@H]3CO)[C@@H]2O)(C(=O)O)C[C@@H]1O [Neu5,9Ac2α3Galβ4GlcβProNH2] | observable binding to both Neu5Ac9NAc (black column) and Neu5,9Ac2 (grey column)-containing glycans
2 | CC(=O)N[C@H]1[C@H]([C@H](O)[C@H](O)CO)O[C@@](O[C@H]2[C@@H](O)[C@@H](CO)O[C@@H](O[C@H]3[C@H](O)[C@@H](O)[C@H](OCCCN)O[C@@H]3CO)[C@@H]2O)(C(=O)O)C[C@@H]1O [Neu5Acα3Galβ4GlcβProNH2] | hSiglec-9 prefers binding to Neu5Ac-glycan without 9-modification at sialic acid
